Tested on: 5X-Gal4-tata-Luc or TK-Gal4-Luc
Assay: Autonomous repressor activity, Gal4 DBD fusions on Gal4-responsive reporter genes in HepG2 cells
Type: cell-based
Settings: fused to Gal4 DBD, both reporter genes

NCoR: known transcriptional repressor, nuclear receptor co-repressor
effect on transcriptional activity of Gal4-responsive reporter genes: inhibit
